Results: US20250134907A1, “FUSED DIAZEPINES AS AGONISTS OF THE INSULIN-LIKE 3 (INSL3) PEPTIDE RECEPTOR RXFP2 AND METHODS OF USE THEREOF” (The United States of America,as represented by the …, priority 2022, published 2025)

Target: T1, RXFP2 (Homo sapiens, UniProt Q8WXD0)
T1 construct: expressed in transfected cells
Assay: HTRF cAMP assay in HEK293T cells stably expressing RXFP2 (HEK-RXFP2)
Format: cell-based
Conditions: for % EFF vs. 1 nM INSL3 (b): normalized to 1 nM INSL3 cAMP response; for % EFF vs. 100 nM INSL3 (c): normalized to 100 nM INSL3 cAMP response
Description: Compound efficacy and EC50 were determined by measuring cAMP induction in vitro. HEK293T cells stably expressing RXFP2 (HEK-RXFP2) produce cAMP when RXFP2 is activated, which can be measured in an antibody-based immunoassay utilizing a fluorescent readout (cAMP Gs HiRange Kit, PerkinElmer, Waltham, MA). HEK-RXFP2 cells were seeded in 96-well plates in serum-free DMEM and incubated overnight at 37° C., 5% CO2. Plates were then treated with a compound titration up to 25 μM or INSL3 control, in the presence of isobutylmethylxanthine phosphodiesterase inhibitor (IBMX) at 200 μM to amplify the cAMP signal, for 1 hour at 37° C., 5% CO2 before being processed as per kit instructions. Table 7 lists the efficacy and EC50 of compounds tested under different experimental conditions. […] In condition (a), 20,000 cells were seeded per well in the 96 well plate, and efficacy was determined by normalizing the maximum compound cAMP response to the 1 nM INSL3 cAMP response (% Efficacy 1 nM INSL3 (a)). In condition (b), 10,000 cells were seeded per well, and compound response was normalized to the 1 nM INSL3 cAMP response (% Efficacy 1 nM INSL3 (b)). In condition (c), 7,500 cells were seeded per well, compound response was normalized to the 100 nM INSL3 cAMP response, and IBMX was omitted (% Efficacy 100 nM INSL3 (c)). A range is given when compounds were tested multiple times. Where compounds were tested under multiple experimental conditions, the EC50 listed for the corresponding condition is marked (a) through (c) to correlate. When EC50 could not be calculated from the dose-response curve, EC50 is listed as not determined (ND).

[1] = condition (b): 10,000 cells/well, IBMX 200 μM
[2] = condition (c): 7,500 cells/well, IBMX omitted

T1 sequence (Q8WXD0 whole entry): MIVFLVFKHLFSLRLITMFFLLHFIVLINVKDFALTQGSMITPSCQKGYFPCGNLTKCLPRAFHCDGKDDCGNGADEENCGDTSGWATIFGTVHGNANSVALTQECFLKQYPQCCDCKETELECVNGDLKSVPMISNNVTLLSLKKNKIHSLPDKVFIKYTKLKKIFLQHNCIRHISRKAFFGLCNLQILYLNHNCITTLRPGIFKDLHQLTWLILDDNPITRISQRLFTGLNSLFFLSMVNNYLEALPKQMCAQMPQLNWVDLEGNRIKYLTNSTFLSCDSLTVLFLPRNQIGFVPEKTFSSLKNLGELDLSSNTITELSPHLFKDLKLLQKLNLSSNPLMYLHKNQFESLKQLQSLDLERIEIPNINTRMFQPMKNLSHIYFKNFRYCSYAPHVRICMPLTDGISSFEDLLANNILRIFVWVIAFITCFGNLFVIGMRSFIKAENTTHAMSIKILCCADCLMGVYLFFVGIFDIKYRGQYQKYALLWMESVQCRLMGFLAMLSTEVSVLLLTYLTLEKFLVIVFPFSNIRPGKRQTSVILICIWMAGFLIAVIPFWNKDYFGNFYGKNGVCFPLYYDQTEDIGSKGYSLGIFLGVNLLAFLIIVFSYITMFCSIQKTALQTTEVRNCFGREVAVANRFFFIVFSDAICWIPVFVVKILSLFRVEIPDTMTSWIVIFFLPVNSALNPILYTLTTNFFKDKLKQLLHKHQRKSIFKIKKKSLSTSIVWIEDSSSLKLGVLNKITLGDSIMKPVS

Row | SMILES | % EFF vs. 100 nM INSL3 (c) [2] [%] | EC50 [2] [nM] | also measured
1 | Cc1cc(-c2ccc3c(c2)C(=O)N2CCN(C(=O)COc4ccc(OC(F)F)cc4C)C[C@H]2C(=O)N3)cc(C(F)(F)F)c1 [Example 168, (S)-2-(2-(4-(Difluoromethoxy)-2-methylphenoxy)acetyl)-8-(3-methyl-5-(trifluoromethyl)phenyl)-1,3,4,12a-tetrahydrobenzo[e]pyrazino[1,2-a][1,4]diazepine-6,12 (2H, 11H)-dione] | – | – | % EFF vs. 1 nM INSL3 (b) [1]: 131.20%
2 | Cc1cc(OC(F)F)ccc1OCC(=O)N1CCN2C(=O)c3cc(-c4cc(O)cc(C(F)(F)F)c4)ccc3NC(=O)[C@@H]2C1 [Example 172] | – | – | % EFF vs. 1 nM INSL3 (b) [1]: 70.66%
3 | O=C1Nc2ccc(-c3cc(O)cc(C(F)(F)F)c3)cc2C(=O)N2CCN(C(=O)COc3ccc(OC(F)(F)F)cc3Br)C[C@@H]12 [Example 173, (S)-2-(2-(2-Bromo-4-(trifluoromethoxy)phenoxy)acetyl)-8-(3-hydroxy-5-(trifluoromethyl)phenyl)-1,3,4,12a-tetrahydrobenzo[e]pyrazino[1,2-a][1,4]diazepine-6,12 (2H, 11H)-dione] | – | – | EC50 [1]: 64.2 nM; % EFF vs. 1 nM INSL3 (b) [1]: 114.71%
4 | Cc1cc(OC(F)F)ccc1OCC(=O)N1CCN2C(=O)c3cc(-c4cccc(C(F)F)c4)ccc3NC(=O)[C@@H]2C1 [Example 177, (S)-2-(2-(4-(difluoromethoxy)-2-methylphenoxy)acetyl)-8-(3-(difluoromethyl)phenyl)-1,3,4,12a-tetrahydrobenzo[e]pyrazino[1,2-a][1,4]diazepine-6,12 (2H, 11H)-dione] | 17.49 | – | –
5 | O=C1Nc2ccc(-c3cccc(C(F)F)c3)cc2C(=O)N2CCN(C(=O)COc3ccc(OC(F)(F)F)cc3Br)C[C@@H]12 [Example 178, (S)-2-(2-(2-Bromo-4-(trifluoromethoxy)phenoxy)acetyl)-8-(3-(difluoromethyl)phenyl)-1,3,4,12a-tetrahydrobenzo[e]pyrazino[1,2-a][1,4]diazepine-6,12 (2H, 11H)-dione] | 52.68 | – | –
6 | O=C1Nc2ccc(-c3cccc(C(F)F)c3)cc2C(=O)N2CCN(C(=O)COc3ccc(OC(F)(F)F)cc3Cl)C[C@@H]12 [Example 179, (S)-2-(2-(2-chloro-4-(trifluoromethoxy)phenoxy)acetyl)-8-(3-(difluoromethyl)phenyl)-1,3,4,12a-tetrahydrobenzo[e]pyrazino[1,2-a][1,4]diazepine-6,12 (2H, 11H)-dione] | 28.25 | – | –
7 | Cc1cc(OC(F)(F)F)ccc1OCC(=O)N1CCN2C(=O)c3cc(-c4cccc(C(F)F)c4)ccc3NC(=O)[C@@H]2C1 [Example 180, (S)-8-(3-(difluoromethyl)phenyl)-2-(2-(2-methyl-4-(trifluoromethoxy)phenoxy)acetyl)-1,3,4,12a-tetrahydrobenzo[e]pyrazino[1,2-a][1,4]diazepine-6,12 (2H, 11H)-dione] | 23.13 | – | –
8 | COc1cc(OC(F)(F)F)ccc1OCC(=O)N1CCN2C(=O)c3cc(-c4cc(C(F)(F)F)cc(C(F)(F)F)c4)ccc3NC(=O)[C@@H]2C1 [Example 185, (S)-8-(3,5-bis(trifluoromethyl)phenyl)-2-(2-(2-methoxy-4-(trifluoromethoxy)phenoxy)acetyl)-1,3,4,12a-tetrahydrobenzo[e]pyrazino[1,2-a][1,4]diazepine-6,12 (2H, 11H)-dione] | 63.16 | 452 | –
9 | O=C1Nc2ccc(-c3cc(C4CC4)cc(C(F)(F)F)c3)cc2C(=O)N2CCN(C(=O)COc3ccc(OC(F)(F)F)cc3Br)C[C@@H]12 [Example 191, (S)-2-(2-(2-bromo-4-(trifluoromethoxy)phenoxy)acetyl)-8-(3-cyclopropyl-5-(trifluoromethyl)phenyl)-1,3,4,12a-tetrahydrobenzo[e]pyrazino[1,2-a][1,4]diazepine-6,12 (2H, 11H)-dione] | 66.75 | 189 | –
10 | O=C1Nc2ccc(-c3cc(C4CC4)cc(C(F)(F)F)c3)cc2C(=O)N2CCN(C(=O)COc3ccc(OC(F)(F)F)cc3I)C[C@@H]12 [Example 192, (S)-8-(3-cyclopropyl-5-(trifluoromethyl)phenyl)-2-(2-(2-iodo-4-(trifluoromethoxy)phenoxy)acetyl)-1,3,4,12a-tetrahydrobenzo[e]pyrazino[1,2-a][1,4]diazepine-6,12 (2H, 11H)-dione] | 77.31 | 77.8 | –
11 | O=C1Nc2ccc(-c3cccc(C(F)(F)F)c3)cc2C(=O)N2CCN(CCOc3ccccc3)CC12 (stereo not drawn) [Example 231, 2-(2-phenoxyethyl)-8-(3-(trifluoromethyl)phenyl)-1,3,4,12a-tetrahydrobenzo[e]pyrazino[1,2-a][1,4]diazepine-6,12 (2H, 11H)-dione] | – | – | % EFF vs. 1 nM INSL3 (a) (condition (a): 20,000 cells/well, IBMX 200 μM, maximum cAMP response normalized to 1 nM INSL3 response): 0.04%
12 | O=C1Nc2ccc(-c3cc(C(F)(F)F)cc(C(F)(F)F)c3)cc2CN2CCN(C(=O)COc3ccc(OC(F)(F)F)cc3I)C[C@@H]12 [Example 254, (S)-8-(3,5-bis(trifluoromethyl)phenyl)-2-(2-(2-iodo-4-(trifluoromethoxy)phenoxy)acetyl)-1,3,4,6,11,12a-hexahydrobenzo[e]pyrazino[1,2-a][1,4]diazepin-12 (2H)-one] | 49.35 | 8610 | –
13 | O=C1Nc2ccc(-c3cccc(C(F)(F)F)c3)cc2C(=O)N2CCN(C(=O)COc3ccc(C(F)(F)F)cc3Cl)C[C@@H]12 [Example 255, (S)-2-(2-(2-chloro-4-(trifluoromethyl)phenoxy)acetyl)-8-(3-(trifluoromethyl)phenyl)-1,3,4,12a-tetrahydrobenzo[e]pyrazino[1,2-a][1,4]diazepine-6,12 (2H, 11H)-dione] | – | – | EC50 [1]: 9.7 nM; % EFF vs. 1 nM INSL3 (b) [1]: 59.15%
14 | O=C1Nc2ccc(-c3cc(O)cc(C(F)(F)F)c3F)cc2C(=O)N2CCN(C(=O)COc3ccc(OC(F)(F)F)cc3Br)C[C@@H]12 [Example 259, (S)-2-(2-(2-bromo-4-(trifluoromethoxy)phenoxy)acetyl)-8-(2-fluoro-5-hydroxy-3-(trifluoromethyl)phenyl)-1,3,4,12a-tetrahydrobenzo[e]pyrazino[1,2-a][1,4]diazepine-6,12 (2H, 11H)-dione] | 67.97 | 62.1 | –
